Values quoted from earlier work as cited in patent US20020155083A1, “Dermal regeneration methods and compositions related thereto in conjunction with laser phototherapy, microdermabrasion and epidermabrasion” (priority 2001, published 2002).
Ends that are not written are not given here.

Assays:
[1] = test system: influenza virus; details: in combination with amantadine and interferon; mice infected with the influenza virus
[2] = test system: C. albicans, Listeria monocytogenes, Pseudomonas aeruginosa, and Serratia marescens; details: 5-fluorouracil (5FU)- or morphine-immunosuppressed mice, injection
[3] = test system: BCO, Candida, or Cryptococcus; details: immunosuppressed mice infected with BCO
[4] = test system: Candida albicans; details: mice, injection
[5] = test system: interferon (IFN); details: mouse, in vivo

thymosin α1 (SDAAVDTSSEITTKDLKEKKEVVEEAEN; ends and bridges not checked; UniProt P06454 2-29, looked up) [Tα1]
long term survival [1]: significantly increase
viral titers in the lungs [1]: reduce viral titers
protection against opportunistic infections [2]: protect
survival rate [3]: increased survival rate
resistance to infection with Candida albicans [4]: increased resistance
amount of interferon (IFN) produced [5]: significant rise
